According to patent EP0603240B1, “SAFENING HERBICIDAL PYRAZOLYLSULFONYLUREAS” (priority 1991, dated 1993):

What was measured:
Format in all cases: in vivo
[1] = system: corn; test: Example 18, Procedure II: Herbicide No. 1 + ERADICANE (EPTC + R-25788) with auxiliary antidotes
Experimental: (§1) Containers were filled and compacted with a fumigated silt loam top soil to a depth of about 1.3 cm from the top of the container. A first container was designated as an untreated control, a second container was designated as a herbicide control, and a third container was designated as a herbicide + antidote test container. Each of the containers was seeded with a crop species. A measured amount of herbicide dispersed or dissolved in acetone was applied to a measured quantity of soil. To this same quantity of soil treated with herbicide, there was added a measured amount of antidote dispersed or dissolved in acetone. The quantity of soil treated with the herbicide and antidote was thoroughly mixed to incorporate the herbicide and antidote in the soil uniformly. The seed bed in the third container of soil was covered with the soil treated with the herbicide and antidote and the container was leveled. For each test series, the seed beds of the first and second containers were likewise covered by soil layers. the cover layer of the first container was not treated with herbicide or antidote.
(§2) The containers were then placed on a bench in a greenhouse and sub-irrigated as required for the duration of the test. […] Plant response is measured in terms of percent injury. Antidote efficacy is indicated as the difference in plant injury by the herbicide(s) without the antidote and with the antidote.
(§3) This procedure is the same as Procedure I, but modified in the manner that after incorporation of the chemicals (herbicide and antidote) the containers with the covered seedbed were treated with an initial overhead irrigation equivalent to 0.6 cm rainfall, then subsequently sub-irrigated as required on greenhouse benches.
(§4) In the test reported in this example, the herbicidal composition was similar to that used in Example 16 in that Herbicide No. 1 was combined with EPTC (Herbicide No. 4) as a co-herbicide and the antidotes included Nos. 1, 2, 7, 13 and 15. However, in this test the EPTC was introduced as a formulation of ERADICANE (EPTC + the antidote R-25788, i.e., Antidote No. 1) at an application rate of 8.96 kg/ha. Thus, in this test two antidotes were present, viz. R-25788 and one of the auxilliary antidotes, No. 2, 13 and 15.
Test procedures were those of Procedure II above.

[2] = system: barnyardgrass (Echinochloa crusgalli); test: Example 19, Procedure II: Herbicide No. 1 + ERADICANE EXTRA with added antidotes
Experimental: as §1, §2, §3
(§5) In the series of greenhouse tests described below, for routine screening purposes the herbicide/antidote compositions were tested in crop/weed combinations involving corn as the crop and either or both of the weeds barnyardgrass (Echinochloa crusgalli), a monocotyledonous weed, and velvetleaf (Abutilon theophrasti), a dicotyledonous weed. In the tables below, these weeds are indicated by the symbols "BYG" and "VL", respectively.
as §4
(§6) The test reported in this example was performed in the same manner and with the same antidotes used in Example 18, the only difference being the substitution of the commercial herbicidal product ERADICANE® EXTRA for ERADICANE®. ERADICANE EXTRA is a formulation containing both an antidote, i.e., R-29148 (Antidote No. 5 herein), and an extender, dietholate.

[3] = system: velvetleaf (Abutilon theophrasti); test: as above
Experimental: as §1, §2, §3, §5, §4, §6

[4] = system: barnyardgrass (Echinochloa crusgalli); test: Example 11, Procedure II: Herbicide No. 1 + metazachlor (No. 14) with antidotes
Experimental: as §1, §2, §3, §5
(§7) In this example, yet another α-chloroacetanilide co-herbicide, metazachlor (Herbicide No. 14) was combined with Herbicide No. 1 for investigation of the effect of various safeners on that composition. Metazachlor is the active ingredient in the commercial herbicide BUTISAN® S, used here as a 500 g/L formulation.

[5] = system: velvetleaf (Abutilon theophrasti); test: as above
Experimental: as §1, §2, §3, §5, §7

[6] = system: corn; test: Example 7, Procedure II: Herbicide No. 1 + metolachlor (No. 12) with antidotes
Experimental: as §1, §2, §3
(§8) In this example, Procedure II described above was followed. The data from the tests in this example is shown in Table 6 and represents averages of duplicate replications.
(§9) The tests in this example followed the same procedure and antidotes used in Example 6. However, Herbicide No. 12 (metolachlor) was used as the co-herbicide with Herbicide No. 1.

[7] = system: barnyardgrass (Echinochloa crusgalli); test: as above
Experimental: as §1, §2, §3, §5, §8, §9

[8] = system: velvetleaf (Abutilon theophrasti); test: as above
Experimental: as §1, §2, §3, §5, §8, §9

[9] = Herbicide No.1 0.56 kg/ha alone
[10] = Herbicide No.1 1.12 kg/ha alone
[11] = Herbicide No.1 0.56 kg/ha + ERADICANE EXTRA 8.96 kg/ha, no added antidote
[12] = Herbicide No.1 1.12 kg/ha + ERADICANE EXTRA 8.96 kg/ha, no added antidote
[13] = Herbicide No.1 0.56 kg/ha + Herbicide No.14 3.36 kg/ha, antidote rate 2.24 kg/ha
[14] = Herbicide No.1 0.56 kg/ha + Herbicide No.14 3.36 kg/ha, antidote rate 8.96 kg/ha
[15] = Herbicide No.1 1.12 kg/ha + Herbicide No.14 3.36 kg/ha, antidote rate 2.24 kg/ha
[16] = Herbicide No.1 1.12 kg/ha + Herbicide No.14 3.36 kg/ha, antidote rate 8.96 kg/ha
[17] = Herbicide No.1 0.56 kg/ha + ERADICANE 8.96 kg/ha, antidote 2.24 kg/ha
[18] = Herbicide No.1 0.56 kg/ha + ERADICANE 8.96 kg/ha, antidote 8.96 kg/ha
[19] = Herbicide No.1 1.12 kg/ha + ERADICANE 8.96 kg/ha, antidote 2.24 kg/ha
[20] = Herbicide No.1 1.12 kg/ha + ERADICANE 8.96 kg/ha, antidote 8.96 kg/ha
[21] = Herbicide No.1 0.14 + No.12 3.36 kg/ha + antidote 2.24 kg/ha
[22] = Herbicide No.1 0.14 + No.12 3.36 kg/ha + antidote 8.96 kg/ha
[23] = Herbicide No.1 0.56 + No.12 3.36 kg/ha + antidote 2.24 kg/ha
[24] = Herbicide No.1 0.56 + No.12 3.36 kg/ha + antidote 8.96 kg/ha
[25] = Herbicide No.1 0.56 kg/ha + ERADICANE EXTRA 8.96 kg/ha, antidote 2.24 kg/ha
[26] = Herbicide No.1 0.56 kg/ha + ERADICANE EXTRA 8.96 kg/ha, antidote 8.96 kg/ha
[27] = Herbicide No.1 1.12 kg/ha + ERADICANE EXTRA 8.96 kg/ha, antidote 2.24 kg/ha
[28] = Herbicide No.1 1.12 kg/ha + ERADICANE EXTRA 8.96 kg/ha, antidote 8.96 kg/ha
[29] = Herbicide No.1 0.56 kg/ha alone, no antidote
[30] = Herbicide No.1 1.12 kg/ha alone, no antidote
[31] = Herbicide No.1 0.14 + No.12 3.36 kg/ha, no antidote
[32] = Herbicide No.1 0.14 + No.12 3.36 kg/ha, no antidote (second such line, r25)
[33] = Herbicide No.1 0.56 + No.12 3.36 kg/ha, no antidote (second such line, r24)
[34] = Herbicide No.1 0.56 + No.12 (metolachlor) 3.36 kg/ha, no antidote

| SMILES | % Injury BYG [4, 13] | % Injury BYG [4, 14] | % Injury BYG [4, 15] | % Injury BYG [4, 16] | % Injury VL [5, 13] | % Injury VL [5, 14] | % Injury VL [5, 15] | % Injury VL [5, 16] | % Injury Corn [1, 17] | % Injury Corn [1, 18] | % Injury Corn [1, 19] | % Injury Corn [1, 20] | % Injury Corn [6, 21] | % Injury Corn [6, 22] | % Injury Corn [6, 24] | % Injury BYG [7, 21] | % Injury BYG [7, 22] | % Injury BYG [7, 23] | % Injury BYG [7, 24] | % Injury VL [8, 21] | other results |
| --- | --- | --- | --- | --- | --- | --- | --- | --- | --- | --- | --- | --- | --- | --- | --- | --- | --- | --- | --- | --- | --- |
| COC(=O)c1c(Cl)nn(C)c1S(=O)(=O)NC(=O)Nc1nc(OC)cc(OC)n1 [No.1] | – | – | – | – | – | – | – | – | – | – | – | – | – | – | – | – | – | – | – | – | % Injury Corn ([1]; Herbicide No.1 0.56 kg/ha + ERADICANE 8.96 kg/ha, no added antidote): 25%; % Injury Corn [1, 9]: 30%; % Injury Corn ([1]; Herbicide No.1 1.12 kg/ha + ERADICANE 8.96 kg/ha, no added antidote): 20%; % Injury Corn [1, 10]: 25%; % Injury BYG [2, 11]: 95%; % Injury BYG [2, 9]: 30%; % Injury BYG [2, 12]: 95%; % Injury BYG [2, 10]: 70%; % Injury VL [3, 11]: 80%; % Injury VL [3, 9]: 50%; % Injury VL [3, 12]: 85%; % Injury VL [3, 10]: 65% |
| CC1(C)OC(c2ccco2)CN1C(=O)C(Cl)Cl (centres unmarked) [compound 15] | 100% | 100% | 100% | 100% | 90% | 90% | 85% | 85% | 25% | 25% | 15% | 30% | 0% | 10% | 15% | 100% | 100% | 100% | 100% | 70% | % Injury Corn [6, 23]: 15%; % Injury VL [8, 22]: 65%; % Injury VL [8, 23]: 75%; % Injury VL [8, 24]: 70%; % Injury BYG [2, 25]: 90%; % Injury BYG [2, 26]: 85%; % Injury BYG [2, 27]: 85%; % Injury BYG [2, 28]: 90%; % Injury VL [3, 25]: 70%; % Injury VL [3, 26]: 75%; % Injury VL [3, 27]: 85%; % Injury VL [3, 28]: 75% |
| O=C(C(Cl)Cl)N1CCOC12CCCCC2 [compound 7] | 99% | 100% | 99% | 99% | 80% | 85% | 90% | 90% | 15% | 20% | 15% | 10% | 10% | 10% | 15% | 100% | 100% | 100% | 100% | 70% | % Injury VL [8, 22]: 65%; % Injury VL [8, 23]: 85%; % Injury VL [8, 24]: 85%; % Injury BYG [2, 25]: 85%; % Injury BYG [2, 26]: 85%; % Injury BYG [2, 27]: 90%; % Injury BYG [2, 28]: 85%; % Injury VL [3, 25]: 75%; % Injury VL [3, 26]: 80%; % Injury VL [3, 27]: 75%; % Injury VL [3, 28]: 85% |
| COC(=O)c1c(Cl)nn(C)c1S(=O)(=O)NC(=O)Nc1nc(OC)cc(OC)n1 [Herbicide No. 1] | – | – | – | – | – | – | – | – | – | – | – | – | – | – | – | – | – | – | – | – | % Injury BYG [4, 29]: 75%; % Injury BYG [4, 30]: 80%; % Injury VL [5, 29]: 75%; % Injury VL [5, 30]: 80%; % Injury Corn [6, 31]: 20%; % Injury Corn [6, 32]: 0%; % Injury Corn [6, 33]: 10%; % Injury Corn [6, 34]: 30%; % Injury BYG [7, 31]: 100%; % Injury BYG [7, 32]: 35%; % Injury BYG [7, 33]: 75%; % Injury BYG [7, 34]: 100%; % Injury VL [8, 31]: 70%; % Injury VL [8, 32]: 60%; % Injury VL [8, 33]: 75%; % Injury VL [8, 34]: 85% |
| CC1(C(Cl)Cl)OCCO1 [compound 13] | 100% | 100% | 100% | 100% | 85% | 85% | 90% | 95% | 10% | 20% | 10% | 40% | 0% | 0% | 10% | 100% | 100% | 100% | 100% | 75% | % Injury Corn [6, 23]: 10%; % Injury VL [8, 22]: 80%; % Injury VL [8, 23]: 85%; % Injury VL [8, 24]: 85%; % Injury BYG [2, 25]: 90%; % Injury BYG [2, 26]: 90%; % Injury BYG [2, 27]: 90%; % Injury BYG [2, 28]: 95%; % Injury VL [3, 25]: 65%; % Injury VL [3, 26]: 70%; % Injury VL [3, 27]: 80%; % Injury VL [3, 28]: 85% |
| O=C1OC(=O)c2cccc3cccc1c23 [compound 2] | 99% | 99% | 100% | 100% | 85% | 90% | 97% | 85% | 15% | 25% | 20% | 20% | 0% | 0% | 15% | 100% | 100% | 100% | 100% | 75% | % Injury Corn [6, 23]: 10%; % Injury VL [8, 22]: 75%; % Injury VL [8, 23]: 80%; % Injury VL [8, 24]: 85%; % Injury BYG [2, 25]: 90%; % Injury BYG [2, 26]: 90%; % Injury BYG [2, 27]: 85%; % Injury BYG [2, 28]: 85%; % Injury VL [3, 25]: 75%; % Injury VL [3, 26]: 75%; % Injury VL [3, 27]: 85%; % Injury VL [3, 28]: 75% |
